Assays:
[1] = Cell viability assay; type: cell-based; conditions: human, MCF-10A mammary gland epithelial normal cells
[2] = test system: lung cancer (A-549) cell line; test: Antiproliferative assay, A-549; type: cell-based; conditions: Homo sapiens, A549, read-out: Antiproliferative activity IC50 ± SEM, A-549
[3] = test system: breast cancer (MCF-7) cell line; test: Antiproliferative assay, MCF-7; type: cell-based; conditions: Homo sapiens, MCF7, read-out: Antiproliferative activity IC50 ± SEM, MCF-7
[4] = test system: pancreatic cancer (Panc-1) cell line; test: Antiproliferative assay, Panc-1; type: cell-based; conditions: Homo sapiens, PANC-1, read-out: Antiproliferative activity IC50 ± SEM, Panc-1
[5] = test system: colon cancer (HT-29); test: Antiproliferative assay, HT-29; type: cell-based; conditions: Homo sapiens, HT-29, read-out: Antiproliferative activity IC50 ± SEM, HT-29
[6] = test system: four human cancer cell lines (A-549, MCF-7, Panc-1, HT-29); test: Antiproliferative assay, average over four cancer cell lines; type: cell-based; conditions: for GI50: Homo sapiens, read-out: Antiproliferative activity, Average (GI50); for Fold lower antiproliferative potency (GI50) than 9c: GI50 relative to 9c
[7] = target: EGFR (Homo sapiens, UniProt P00533); test: EGFR-TK inhibitory assay; type: biochemical
EGFR (Homo sapiens, UniProt P00533), sequence (P00533 669-1210): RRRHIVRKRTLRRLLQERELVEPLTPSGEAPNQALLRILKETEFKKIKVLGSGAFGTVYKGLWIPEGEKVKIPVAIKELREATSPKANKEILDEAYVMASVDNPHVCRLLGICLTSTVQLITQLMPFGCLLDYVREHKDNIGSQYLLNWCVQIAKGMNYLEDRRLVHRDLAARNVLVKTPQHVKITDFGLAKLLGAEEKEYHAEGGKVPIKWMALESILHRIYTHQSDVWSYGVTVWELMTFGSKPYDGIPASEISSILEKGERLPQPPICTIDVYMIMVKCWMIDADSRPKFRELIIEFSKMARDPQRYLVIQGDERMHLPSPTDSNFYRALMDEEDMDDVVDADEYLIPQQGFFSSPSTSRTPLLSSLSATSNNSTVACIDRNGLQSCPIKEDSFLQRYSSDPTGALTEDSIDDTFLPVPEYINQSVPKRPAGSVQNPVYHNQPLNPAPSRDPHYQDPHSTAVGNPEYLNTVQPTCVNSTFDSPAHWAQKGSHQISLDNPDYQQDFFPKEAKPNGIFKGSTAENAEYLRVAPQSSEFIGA

[8] = target: BRAF^V600E (Mus musculus, UniProt P28028, V585E); test: BRAF^V600E inhibitory assay; type: biochemical
BRAF^V600E (Mus musculus, UniProt P28028, V585E), sequence (P28028 whole entry V585E): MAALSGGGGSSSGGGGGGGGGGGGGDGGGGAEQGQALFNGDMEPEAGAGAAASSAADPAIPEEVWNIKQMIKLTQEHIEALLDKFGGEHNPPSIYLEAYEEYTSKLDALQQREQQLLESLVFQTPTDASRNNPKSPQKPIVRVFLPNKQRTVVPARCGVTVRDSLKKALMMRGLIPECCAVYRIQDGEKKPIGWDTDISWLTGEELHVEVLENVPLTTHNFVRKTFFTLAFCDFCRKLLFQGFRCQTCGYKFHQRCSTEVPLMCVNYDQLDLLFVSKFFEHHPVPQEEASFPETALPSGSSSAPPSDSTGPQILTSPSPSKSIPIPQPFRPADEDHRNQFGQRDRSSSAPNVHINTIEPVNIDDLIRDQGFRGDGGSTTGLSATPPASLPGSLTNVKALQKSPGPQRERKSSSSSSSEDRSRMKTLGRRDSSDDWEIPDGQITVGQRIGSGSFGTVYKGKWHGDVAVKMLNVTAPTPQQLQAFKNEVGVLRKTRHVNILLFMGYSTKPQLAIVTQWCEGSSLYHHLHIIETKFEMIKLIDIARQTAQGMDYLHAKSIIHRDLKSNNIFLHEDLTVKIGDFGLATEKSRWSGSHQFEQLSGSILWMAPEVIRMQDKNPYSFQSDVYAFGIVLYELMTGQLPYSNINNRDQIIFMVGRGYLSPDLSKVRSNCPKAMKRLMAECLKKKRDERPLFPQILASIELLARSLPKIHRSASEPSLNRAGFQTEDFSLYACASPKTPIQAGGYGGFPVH

[9] = target: VEGFR-2 (Homo sapiens, UniProt P35968); test: VEGFR-2 inhibitory assay; type: biochemical
VEGFR-2 (Homo sapiens, UniProt P35968), sequence (P35968 20-1356): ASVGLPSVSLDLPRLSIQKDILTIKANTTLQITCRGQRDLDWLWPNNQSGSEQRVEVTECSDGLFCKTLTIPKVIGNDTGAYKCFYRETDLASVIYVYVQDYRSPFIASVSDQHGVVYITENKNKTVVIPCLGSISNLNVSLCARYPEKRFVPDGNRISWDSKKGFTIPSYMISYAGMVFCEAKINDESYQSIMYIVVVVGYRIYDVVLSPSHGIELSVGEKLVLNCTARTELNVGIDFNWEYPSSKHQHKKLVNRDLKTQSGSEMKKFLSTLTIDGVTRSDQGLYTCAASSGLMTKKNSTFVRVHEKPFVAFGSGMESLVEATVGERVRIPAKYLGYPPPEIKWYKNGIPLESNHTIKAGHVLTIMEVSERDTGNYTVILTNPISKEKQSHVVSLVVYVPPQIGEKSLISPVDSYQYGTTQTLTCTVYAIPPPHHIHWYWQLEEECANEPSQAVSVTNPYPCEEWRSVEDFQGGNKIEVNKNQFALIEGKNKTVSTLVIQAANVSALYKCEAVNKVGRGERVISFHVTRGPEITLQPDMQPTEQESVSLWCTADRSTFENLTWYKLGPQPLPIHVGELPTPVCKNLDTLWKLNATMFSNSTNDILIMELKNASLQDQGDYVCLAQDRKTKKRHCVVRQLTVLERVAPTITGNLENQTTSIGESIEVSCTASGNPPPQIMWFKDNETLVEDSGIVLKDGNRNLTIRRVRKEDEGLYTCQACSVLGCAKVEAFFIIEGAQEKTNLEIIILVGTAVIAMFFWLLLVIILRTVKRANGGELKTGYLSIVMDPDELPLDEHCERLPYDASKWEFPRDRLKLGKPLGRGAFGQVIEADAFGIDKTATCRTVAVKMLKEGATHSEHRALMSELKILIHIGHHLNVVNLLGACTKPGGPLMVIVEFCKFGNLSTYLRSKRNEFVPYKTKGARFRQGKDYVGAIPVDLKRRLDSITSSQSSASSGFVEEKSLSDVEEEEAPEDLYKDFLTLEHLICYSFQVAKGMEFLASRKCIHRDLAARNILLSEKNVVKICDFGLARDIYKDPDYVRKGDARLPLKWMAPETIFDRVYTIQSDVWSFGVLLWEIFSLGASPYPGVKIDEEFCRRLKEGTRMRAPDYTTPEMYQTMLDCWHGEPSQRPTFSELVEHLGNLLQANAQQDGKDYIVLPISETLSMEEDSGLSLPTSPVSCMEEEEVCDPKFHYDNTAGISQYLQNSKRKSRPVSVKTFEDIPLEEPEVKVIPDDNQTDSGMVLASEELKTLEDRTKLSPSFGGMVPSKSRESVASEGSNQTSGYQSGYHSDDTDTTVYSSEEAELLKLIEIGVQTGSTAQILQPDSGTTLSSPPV

[10] = test system: EGFR; test: Western blotting, EGFR level in A549 cells; type: cell-based, human; conditions: untreated control OD 0.695
[11] = test system: VEGFR-2; test: Western blotting, VEGFR-2 level in A549 cells; type: cell-based, human; conditions: untreated control OD 0.662
[12] = test system: BRAF^V600E; test: Western blotting, BRAF^V600E level in A549 cells; type: cell-based, human; conditions: untreated control OD 0.507

SMILES	viability at 96 h, 50 µM [1] [%]	IC50 [2] [nM]	IC50 [3] [nM]	IC50 [4] [nM]	IC50 [5] [nM]	GI50 [6] [nM]	IC50 [7] [nM]	IC50 [8] [nM]	IC50 [9] [nM]	Fold lower antiproliferative potency (GI50) than 9c [6] [fold]	Western blotting OD, EGFR [10]	Western blotting OD, VEGFR-2 [11]	Western blotting OD, BRAF^V600E [12]
Brc1ccc(C2=NN=C(Nc3ccccc3)SC2)cc1 [Compound 9d, 5-(4-Bromophenyl)-2-(phenylamino)-6H-1,3,4-thiadiazin-3-ium bromide]	89	48 ± 4	44 ± 4	48 ± 4	47 ± 4	47	96 ± 7	88 ± 6	3.25 ± 0.03				
CC/N=C1/NN=C(c2ccc(Br)cc2)CS1 [Compound 9f, (Z)-N-(5-(4-Bromophenyl)-3,6-dihydro-2H-1,3,4-thiadiazin-2-ylidene)ethan aminium bromide]	89	65 ± 6	64 ± 6	66 ± 6	66 ± 6	66							
Br.c1ccc(NC2=NN=C(c3ccccc3)CS2)cc1 [Compound 9a, 5-Phenyl-2-(phenylamino)-6H-1,3,4-thiadiazin-3-ium bromide]	91	43 ± 4	40 ± 4	44 ± 4	44 ± 4	43	92 ± 7	83 ± 6	2.8 ± 0.02	1.2			
Brc1ccc(C2=NN/C(=N/C3CCCCC3)SC2)cc1 [Compound 9g, (Z)-N-(5-(4-Bromophenyl)-3,6-dihydro-2H-1,3,4-thiadiazin-2-ylidene) cyclohexanaminium bromide]	88	54 ± 5	51 ± 5	56 ± 5	56 ± 5	54							
Br.C=CC/N=C1/NN=C(c2ccccc2)CS1 [Compound 9b, (Z)-N-(5-Phenyl-3,6-dihydro-2H-1,3,4-thiadiazin-2-ylidene)prop-2-en-1-aminium bromide]	90	56 ± 5	52 ± 5	58 ± 5	58 ± 5	56				1.5			
Br.c1ccc(C2=NN/C(=N/C3CCCCC3)SC2)cc1 [Compound 9c, (Z)-N-(5-Phenyl-3,6-dihydro-2H-1,3,4-thiadiazin-2-ylidene) cyclohexanaminium bromide]	92	37 ± 3	35 ± 3	38 ± 3	40 ± 4	38	86 ± 5	74 ± 5	2.2 ± 0.02		0.288	0.346	0.219
C/N=C1/NN=C(c2ccc(Br)cc2)CS1 [Compound 9e, (Z)-N-(5-(4-Bromophenyl)-3,6-dihydro-2H-1,3,4-thiadiazin-2-ylidene) methanaminium bromide]	92	62 ± 6	58 ± 5	64 ± 6	64 ± 6	62							
C#Cc1cccc(Nc2ncnc3cc(OCCOC)c(OCCOC)cc23)c1 [Erlotinib, reference compound]		30 ± 3	40 ± 3	30 ± 3	30 ± 3								

— publication PMC11208997 (RSC Advances, 2024)
